Measured values reported in US20050187262A1, “Compositions comprising (S)-amlodipine and an angiotensin receptor blocker and methods of their use” (priority 2004, published 2005).

What was measured:
Format in all cases: in vivo, rat
rats [1] = assay: Phase II: dose-responsive hypotensive effects of the individual agents, ED30/ED50 relative to sodium nitroprusside; conditions: for ED50: Rattus norvegicus; for ED30: dose causing 30% of the maximal drop in blood pressure produced by sodium nitroprusside 30 μg/kg i.v.
Description: (S)-amlodipine malate and seven ARBs (candasartan, eprosartan, irbesartan, losartan, olmesartan, telmisartan and valsartan) were evaluated. The study was conducted in three parts. Phase I evaluated the time-course of the hypotensive actions of all eight agents ([S]-amlodipine and the seven ARBs). In Phase II, the dose-responsive effects of [S]-amlodipine malate and the seven ARBs were evaluated individually. […] In Phase III, the dose response to [S]-amlodipine was evaluated in the presence and absence of the ED30 and ED50dose of each of the seven ARBs, with the objective of comparing the extent to which each ARB, at its ED30 or ED50, shifted the dose-response curve of [S]-amlodipine to the left and thus, lowering the apparent ED50 of the calcium channel blocker.
(§1) The jugular vein and the carotid artery were cannulated with PE-50 tubing for drug administration and recording of cardiovascular parameters, respectively. Blood pressure was recorded from the carotid artery by means of a pressure transducer and heart rate was derived electronically from the blood pressure signal. The signal output derived electronically from the arterial pressure was analyzed with a digital computer. The software IOX-16 continuously recorded the data every 5 sec during the entire procedure for each rat. Raw arterial pressure (in mmHg) and heart rate (beats per min), as well as changes in these two parameters relative to baseline or pre-drug levels (for doses other than initial dose), both in raw units (mm Hg or beats per min [bpm]) and as percentage change from baseline were captured and analyzed. The animals were allowed to equilibrate for 15-20 min before any treatment.
(§2) Doses are expressed in terms of free active substance. Each treatment was administered in a volume of 1 mL/kg by slow (over 20-30 seconds) i.v. bolus for all test articles, in all three phases.
(§3) The data were reported as mean±S.E.M. (standard error of the mean) from 3-5 rats per group. Raw arterial pressure (in mmHg) and heart rate (beats per min), as well as changes in these two parameters relative to baseline or pre-drug levels (for doses other than initial dose), both in raw units (mmHg or beats per min [bpm]) and as percentage change from baseline, were captured and analyzed.

rats [2] = assay: Phase III: dose response to (S)-amlodipine malate in the absence and presence of an ARB; conditions: for position/shift of the dose response curve of (S)-amlodipine malate plus ARB versus (S)-amlodipine malate alone: ARB given at its ED30, FIGS. 1A and 1B; for ED50: Rattus norvegicus, iv, ARB given at its ED30, read-out: apparent ED50 of (S)-amlodipine malate when combined with the ARB; for Potential Dosage Adjustment (%): extent to which (S)-amlodipine malate could be lowered when co-administered with the ARB
Description: (§4) (S)-amlodipine malate and seven ARBs (candasartan, eprosartan, irbesartan, losartan, olmesartan, telmisartan and valsartan) were evaluated. The study was conducted in three parts. Phase I evaluated the time-course of the hypotensive actions of all eight agents ([S]-amlodipine and the seven ARBs). In Phase II, the dose-responsive effects of [S]-amlodipine malate and the seven ARBs were evaluated individually. From this phase of the study, ED30 and ED50 doses of each of the seven ARBs were identified, defined as the dose that produced 30 or 50 percent of the hypotensive effect produced by a rapid i.v. injection (30 μg/kg) of sodium nitroprusside (NTP), a short-acting vasodilator. In Phase III, the dose response to [S]-amlodipine was evaluated in the presence and absence of the ED30 and ED50dose of each of the seven ARBs, with the objective of comparing the extent to which each ARB, at its ED30 or ED50, shifted the dose-response curve of [S]-amlodipine to the left and thus, lowering the apparent ED50 of the calcium channel blocker.
as §1, with “Animals were anesthetized with thiobutabarbital sodium (Inactin®, 150 mg/kg, delivered i.p.), tracheotomized and placed on a thermostatically controlled heating pad (37-38° C.). The jugular” for “The jugular”
as §2, §3
ED30 and ED50 for each drug were defined as the dose causing a decline in arterial pressure corresponding to 30% and to 50%, respectively, of the maximal drop in blood pressure produced by fast bolus i.v. injection (30 μg/kg) of sodium nitroprusside.
Dose-response curves with (S)-amlodipine malate in the absence and presence of each of the seven ARBs at its ED30 are shown in FIGS. 1A and 1B. The data shown in the figures are from experiments in which ED30 doses of each of the ARBs was combined with (S)-amlodipine malate. These were chosen because ED30 doses were obtainable by direct interpolation of dose response curves from Phase II. For several of the ARBs, doses corresponding to ED50 were obtained from extrapolation of their dose response curves.

rats [3] = test system: rats
Description: as §4
as §1, with “Animals were anesthetized with thiobutabarbital sodium (Inactin®, 150 mg/kg, delivered i.p.), tracheotomized and placed on a thermostatically controlled heating pad (37-38° C.). The jugular” for “The jugular”
as §2, §3

[4] = iv, hypotensive effect did not reach 50% of the maximum NTP effect, read-out: ED50 (extrapolated from dose response curve)
[5] = iv, dose causing 50% of the maximal drop in blood pressure produced by sodium nitroprusside 30 μg/kg i.v., read-out: ED50 (estimated)

Compound	ED50 (rats [1]; [4]) [mg/kg]	ED30 (rats [1]; i.v.) [µg/kg]	position/shift of the dose response curve of (S)-amlodipine malate plus ARB versus (S)-amlodipine malate alone (rats [2])	ED50 (rats [2]) [mg/kg]	Potential Dosage Adjustment (%) (rats [2])	further results
CCCc1nc2c(C)cc(-c3nc4ccccc4n3C)cc2n1Cc1ccc(-c2ccccc2C(=O)O)cc1 [Telmisartan, 4′-[(1,4′-dimethyl-2′-propyl[2,6′-bi-1H-benzimidazol]-1′-yl)methyl]-[1,1′-biphenyl]-2-carboxylic acid]	~2	242	offset			fall in MBP from baseline values at the next higher dose (rats [1]; 1000 mg/kg i.v.): 23±3%; maximum decrease in MBP from baseline values (rats [1]; reached with 300 μg/kg i.v.): 19±2%
CCCCc1nc(Cl)c(CO)n1Cc1ccc(-c2ccccc2-c2nnn[nH]2)cc1 [Losartan, 2-butyl-4-chloro-1-[[2′-(1H-tetrazol-5-yl)[1,1′-biphenyl]-4-yl]methyl]-1H-imidazole-5-methanol]	10	625		0.078	15	maximum decrease in MBP from baseline values (rats [1]; reached with 3,000 μg/kg i.v.): 23±3%
CCCCC(=O)N(Cc1ccc(-c2ccccc2-c2nnn[nH]2)cc1)[C@H](C(=O)O)C(C)C [Valsartan, N-(1-oxopentyl)-N-[[2′-(1H-tetrazol-5-yl)[1,1′-biphenyl]-4-yl]methyl]-L-valine]	~4	229	greatest leftward shift	0.063	32	fall in MBP from baseline values at the next higher dose (rats [1]; 1000 mg/kg i.v.): 19±3%; maximum decrease in MBP from baseline values (rats [1]; reached with 300 μg/kg i.v.): 18±3%
CCCCc1ncc(/C=C(\Cc2cccs2)C(=O)O)n1Cc1ccc(C(=O)O)cc1 [Eprosartan, (E)-α-[[2-butyl-1-[(4-carboxyphenyl)methyl]-1H-imidazol-5-yl]methylene]-2-thiophenepropanoic acid]	~7	104		0.07	24	fall in MBP from baseline values at the next higher dose (rats [1]; 3000 mg/kg i.v.): 23±2%; maximum decrease in MBP from baseline values (rats [1]; reached with 1000 μg/kg i.v.): 22±2%
CCOc1nc2cccc(C(=O)O)c2n1Cc1ccc(-c2ccccc2-c2nnn[nH]2)cc1 [Candasartan, 2-ethoxy-1-[[2′-(1H-tetrazol-5-yl)[1,1′-biphenyl]-4-yl]methyl]-1H-benzimidazole-7-carboxylic acid]		8	offset			time post-injection to maximum decline of MBP (rats [3]; 30 μg/kg i.v.): 30 min; maximum declines of mean blood pressure (MBP) (rats [3]; 30 μg/kg i.v., at 30 min post-injection): about 20 mmHg; decline in MBP at the next higher dose (rats [1]; 300 mg/kg i.v.): no further decline; ED50 (rats [1]; [5]): 0.052 mg/kg; maximum decrease in MBP from baseline values (rats [1]; reached with 100 μg/kg i.v.): 34±2%
CCOC(=O)C1=C(COCCN)NC(C)=C(C(=O)OC)[C@@H]1c1ccccc1Cl.O=C(O)C[C@H](O)C(=O)O [(S)-amlodipine malate, (S)-Amlodipine-L-Malate]		56				time post-injection to maximum/peak hypotensive effect (rats [3]; 100 μg/kg i.v.): 35 to 55 min; maximum effect, decrease in blood pressure (rats [3]; 100 μg/kg i.v., anesthetized rats): 14-17 mmHg; maximum decline in MBP from baseline values (rats [1]; doses 3 to 300 μg/kg i.v.): 49±1%; ED50 (estimated) (rats [1]; i.v., dose causing 50% of the maximal drop in blood pressure produced by sodium nitroprusside 30 μg/kg i.v.): 110 µg/kg; HR after injection of each dose (rats [1]; rat, in vivo, iv): gradually and concomitantly increased; ED50 of (S)-amlodipine malate in the absence of an ARB (rats [2]; i.v., no ARB): 92 µg/kg
CCCCC1=NC2(CCCC2)C(=O)N1Cc1ccc(-c2ccccc2-c2nnn[nH]2)cc1 [Irbesartan, 2-butyl-3-[[2′-(1H-tetrazol-5-yl)[1,1′-bephenyl]-4-yl]methyl]-1,3-diazaspiro[4,4]non-1-en-4-one]		649		0.071	23	ED50 (rats [1]; [5]): 2.21 mg/kg; maximum decrease in MBP from baseline values (rats [1]; reached with 3,000 μg/kg i.v.): 28±1%
